From US11524956B2, “Alkyne substituted quinazoline compound and methods of use” (Newgen Therapeutics, Inc., priority 2011, dated 2022)
“Also recorded” adds a separate entry of the source.

Legend:
[1] = target: ErbB2 kinase protein (Homo sapiens (Human), UniProt P04626); experiment: Kinase assay for ErbB2; format: biochemical; details: read-out: Kinase inhibition IC50 (nM) ErbB2
Protocol: The assay is performed similarly to the kinase assay for […] as described above, except ErbB2 kinase protein is used instead of EGFR kinase protein.

[2] = test system: BT474 cells; experiment: Cell proliferation inhibition assay for BT474 (CCK-8); format: cell-based; details: Homo sapiens, BT-474; 72h
Protocol: Human breast cancer BT474 cells was cultured in low glucose DMEM (Life Technologies 12320-032) containing 10% fetal bovine serum (FBS) at 37° C. in a humidified 10% CO2, 90% air incubator. Cells were harvested using trypsin EDTA, counted using a haemocytometer, and plated 10000 cell/well in a 96-well clear tissue culture plate. The cells were incubated for 24 h at 37° C. to allow adherence. A serials of concentrations of each compound (ranging from 30 um to 0.16 nM, 5-fold dilution) in 96-well plate, and incubated for 72h. Each concentration was tested in triplicate wells. During the cell proliferation assay, BT474 cells were cultured in low-glucose DMEM containing 5% FBS, 50 ug/ml gentamicin, and 0.3% v/v DMSO. The culture medium was removed via aspiration, and the cell viability was detected by using CCK-8 cell proliferation kit. The IC50 value measured for each compound in Examples 1 to 7 is <100 nM.

[3] = target: EGFR kinase (Homo sapiens (Human), UniProt P00533); experiment: Kinase assay for EGFR (TR-FRET, LanthaScreen); format: biochemical; details: read-out: Kinase inhibition IC50 (nM) EGFR
Sequence of EGFR kinase (P00533 668-1210): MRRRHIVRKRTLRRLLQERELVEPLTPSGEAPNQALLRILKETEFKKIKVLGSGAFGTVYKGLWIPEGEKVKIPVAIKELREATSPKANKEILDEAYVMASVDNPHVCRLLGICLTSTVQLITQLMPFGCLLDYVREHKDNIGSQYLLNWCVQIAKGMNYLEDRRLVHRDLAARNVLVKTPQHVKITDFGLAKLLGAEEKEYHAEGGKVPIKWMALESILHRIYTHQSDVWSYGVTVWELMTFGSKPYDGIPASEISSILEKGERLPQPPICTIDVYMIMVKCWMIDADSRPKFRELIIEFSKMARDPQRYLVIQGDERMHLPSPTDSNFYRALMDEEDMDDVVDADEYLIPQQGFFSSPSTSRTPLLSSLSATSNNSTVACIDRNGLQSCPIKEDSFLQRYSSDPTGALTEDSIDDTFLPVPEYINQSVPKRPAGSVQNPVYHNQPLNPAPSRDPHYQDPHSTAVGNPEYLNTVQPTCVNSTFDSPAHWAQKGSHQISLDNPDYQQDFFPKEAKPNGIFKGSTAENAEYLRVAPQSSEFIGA
Protocol: The extent to which the compounds of the present invention modulate EGFR kinase activity can be determined using time-resolved Fret (TR-FRET) assay (LanthaScreen® kinase activity assay, from InVitrogen). The assay employs EGFR kinase (PV3872, Invitrogen), Tb-Py20 antibody (PV3552, InVitrogen) and fluorescein-poly GT (PV3610, InVitrogen).
The assay is performed in a Black 384-well plate (available from Corning). EGFR kinase (is diluted in TR-FRET Dilution Buffer (PV3189, InVitrogen) at concentration of 0.4 ug/ml as stock solution, and then 2-fold serial diluted. Addition of 1 mM ATP initiated the reaction, and the reaction is incubated for […] at room temperature. 10 μL of the Tb-antibody (from InVitrogen)+EDTA (from InVitrogen) solution prepared was added to each well of the assay plate and mix briefly, and incubated for 30 min. The signal is monitored by using M5 microplate reader (Ex=332 nm, Em=488 nm and 518 nm). Each compound is tested in duplicate wells. EGFR without compound is used as control. Staurosporine (available from Sigma) is used as positive control compound. Inhibition was calculated as percentage of the EGFR activity (without compound).

[4] = test system: NCI-N87 xenograft; experiment: In vivo efficacy in NCI-N87 xenograft mouse model; details: 80 mg/kg p.o. bid
Protocol: NCI-N87 cell line was purchased from ATCC (American Type Culture Collection) and was cultured in RPMI1640+10% FBS+1% P/S antibiotics.
Male Balb/c nude mice, 6-8 week, 18±2 g (supplier: Shanghai SLAC Laboratory Animal Co. Ltd.) were used for the experiment. The purchased mice were adapted to the environment for 7 days before use, and were housed at 22-25° C. with humidity 40-70%, and light cycle with fluorescent light for 12-hour light (8:00-20:00) 12-hour dark. The mice have free access to food and water.
The cancer cells (NCI-N87) were implanted subcutaneous into the nude mice (right flank) with 5.0×10^6 cells in 0.1 ml PBS (50 mice). When the tumor size reaches a volume of 200 (150-200) mm^3, the tumor-bearing nude mice were randomly assigned into groups (10 mice/group), one group was served as vehicle, one group was administrated with Lapatinib ditosylate monohydrate (80 mg/kg, free base of Lapatinib, not salt, p.o. […]). The other two groups were administrated with NT113 (also referred to as KID 113) ((15 and 30 mg/kg, p.o.q.d, respectively). The administration period lasted for 4 weeks.
The mice were monitored twice daily for appearance and behavior, and for signs of morbidity and/or mortality. The tumor volume was measured twice a week, and the body weight was measured immediately before measuring the tumor volume throughout the whole study.
At end of the experiment (compound administration for four weeks), all the tumor-bearing mice were sacrificed by cervical dislocation under deep anesthesia. The tumor mass was resected, and weighed.
Tumor sizes were measured twice weekly in two dimensions using a caliper, and the volume was expressed in mm^3 using the formula: V=½×a×b^2 where a and b are the long and short diameters of the tumor, respectively. The tumor mass was weighed at the end of the experiment after harvested.
V=½×a×b^2 (a, h is maximum and minimum diameters respectively).
RTV (Relative Tumor Volume)=Vt/Vo • Vo is the tumor volume when the test article is initial administrated • Vt is the tumor volume of every measurement day after test article administration
T/C (%)=TRTV/CRTV×100% • TRTV: RTV of test article-treatment group; CRTV: RTV of control group Inhibition rate (%)=(average tumor volume of control group average cancer volume of test article treatment group)/average tumor volume of control group×100%
The tumor-bearing mice were treated for 4 weeks with different doses of KU (15 mg/kg, 30 mg/kg, […]), qd) and Lapatinib KUA-1, 80 mg/kg, p.o., bid, 7 days/week. At the day-7 after treatment, the RTV TIC KU113 (15 mg/kg, 30 mg/kg) groups were <30%, and the tumor growth inhibition was >70%. but the RTV TIC was 31% and tumor growth inhibition rat was 69% in the lapatinib group. The same result was observed as well when it comes to the tumor weight. On day 28 after treatment, all the tumor-bearing mice were sacrificed, and all the tumor masses were harvested to weigh.

[5] = Rat pharmacokinetics studies (plasma); format: in vivo, Sprague Dawley rats; details: rat
Protocol: Sample preparation: The test article each was dissolved in 10% DMSO and 90% of (40% HP-β-CD in deionized water) to yield concentration at 2 mg/mL for intravenous and oral administration.
Method development and plasma samples analysis were performed by Analytical Sciences Division of the Testing Facility by means of LC-MS/MS. The analytical results were confirmed using quality control samples for intra-assay variation (within day variation). The accuracy of >66% of the quality control samples was between 80-120% of the known value(s).
Each group consisted of 3 male Sprague Dawley rats (7-8 week old, 200-300 g body weight). The test articles were administered by a single bolus intravenous injection via the lateral tail vein or via oral gavage.
Blood samples (approximately 300 μl) were collected via retro-orbital puncture after anaesthesia using mixed gas (CO2:O2=7:3) into tubes containing EDTA-K3 anticoagulant at appropriate time points. 10 time points (Groups 1-2): Pre-dose and post-dose at 5 min, 15 min, 30 min, 1 h, 2 h, 4 h, 6 h, 8 h and 24 h.
Analysis: The PK blood samples were centrifuged at approximately 8000 rpm for (3 minutes at 2-8° C. and the resulting plasma were separated and stored frozen at approximately −80° C. (following separation, the plasma may be initially placed on ice prior to being stored in the −80° C. freezer). All the plasma samples were labeled with detailed information such as study number, animal number, matrix, time points of collection and date of collection.
Standard set of parameters including Area Under the Curve (AUC(0-t) and AUC(0-∞)), elimination half-live (T1/2), maximum plasma concentration (Cmax), time to reach maximum plasma concentration (Tmax), clearance (CL), and volume of distribution (Vz) will be calculated using noncompartmental analysis modules in FDA certified pharmacokinetic program WinNonlin Professional v5.2 (Pharsight, USA) by the Study Director. Furthermore, the Bioavailability will be estimated using the following formula:
• AUC(0-t) Area under the curve from the time of dosing to the last measurable concentration • AUC(0-∞) Area under the curve from the time of dosing extrapolated to infinity, based on the last observed concentration • CL Total body clearance, CL=Dose/AUC • Cmax Maximum observed concentration, occurring at Tmax • F Bioavailability • MRT(0-∞) Mean residence time from the time of dosing to infinity • Tmax Time of maximum observed concentration • T1/2 Terminal half-life=In(2)/λz • Vz Volume of distribution based on the terminal phase

[6] = Rat brain concentration; format: in vivo, Sprague Dawley rats; details: predetermined time points
Protocol: Brain concentration: Three rats are for brain collection (2h) only. Three rats are for brain collection (4 h) only. The rest 3 rats are for plasma (9 time points) and brain collection (24h).
Brain Collection and Tissue Processing: Post blood collection, the brain was first perfused intracardially with ˜150 mL of ice-cold, 0.1 M Phosphate Buffered Saline (PBS) at pH7.4. Then, the dura was removed before weighing the brain. The brain was then dissected into smaller pieces, rinsed twice with ˜10 mL PBS, and then flash frozen on dry ice, and stored at −80° C. before analysis.
Before tissue processing, rat brains were thawed. For the preparation of analytical standards, purchased frozen rat brains (from Pelfreez) were similarly thawed, dissected, rinsed with PBS, and 100 μL of Compound A stock solution (at 500 ng/mL and 1, 2 5, 10, and 50 μg/mL in acetonitrile) was spiked directly into the tissue. Both Compound A dosed and spiked brains then underwent the same processing procedures described below.
Briefly, 2 mL of water was added to each brain before homogenization. Homogenize the brain in 2 to 3 sessions, each approximately 15 sec. The mechanical probe of the homogenizer was cleansed in water, 70% ethanol, and ethyl acetate after each sample. The resulting brain homogenates were then extracted with ethyl acetate three times (14 mL total), and centrifuged to separate the aqueous and organic phases after each extraction. Per brain, pooled organic phase were evaporated under a stream of nitrogen at 40° C. and the residues were reconstituted with 4 mL of mobile phase B. Compound A spiked brain samples in the 4 mL solutions had final concentrations of 12.5, 25, 50, 125, 250, 1250 ng/mL. The reconstituted samples were incubated for ˜15 minutes at 60° C. and, vortexed for 10 minutes to fully dissolve the analytes. The samples were centrifuged, and then further diluted with Mobile phase B (shown below) before LC/MS/MS analysis. Dilute 20 μL of reconstituted samples with 1.5 mL mobile phase B. Transfer and inject supernatant to […] system for analysis.

Sequence of ErbB2 kinase protein (P04626 23-1255): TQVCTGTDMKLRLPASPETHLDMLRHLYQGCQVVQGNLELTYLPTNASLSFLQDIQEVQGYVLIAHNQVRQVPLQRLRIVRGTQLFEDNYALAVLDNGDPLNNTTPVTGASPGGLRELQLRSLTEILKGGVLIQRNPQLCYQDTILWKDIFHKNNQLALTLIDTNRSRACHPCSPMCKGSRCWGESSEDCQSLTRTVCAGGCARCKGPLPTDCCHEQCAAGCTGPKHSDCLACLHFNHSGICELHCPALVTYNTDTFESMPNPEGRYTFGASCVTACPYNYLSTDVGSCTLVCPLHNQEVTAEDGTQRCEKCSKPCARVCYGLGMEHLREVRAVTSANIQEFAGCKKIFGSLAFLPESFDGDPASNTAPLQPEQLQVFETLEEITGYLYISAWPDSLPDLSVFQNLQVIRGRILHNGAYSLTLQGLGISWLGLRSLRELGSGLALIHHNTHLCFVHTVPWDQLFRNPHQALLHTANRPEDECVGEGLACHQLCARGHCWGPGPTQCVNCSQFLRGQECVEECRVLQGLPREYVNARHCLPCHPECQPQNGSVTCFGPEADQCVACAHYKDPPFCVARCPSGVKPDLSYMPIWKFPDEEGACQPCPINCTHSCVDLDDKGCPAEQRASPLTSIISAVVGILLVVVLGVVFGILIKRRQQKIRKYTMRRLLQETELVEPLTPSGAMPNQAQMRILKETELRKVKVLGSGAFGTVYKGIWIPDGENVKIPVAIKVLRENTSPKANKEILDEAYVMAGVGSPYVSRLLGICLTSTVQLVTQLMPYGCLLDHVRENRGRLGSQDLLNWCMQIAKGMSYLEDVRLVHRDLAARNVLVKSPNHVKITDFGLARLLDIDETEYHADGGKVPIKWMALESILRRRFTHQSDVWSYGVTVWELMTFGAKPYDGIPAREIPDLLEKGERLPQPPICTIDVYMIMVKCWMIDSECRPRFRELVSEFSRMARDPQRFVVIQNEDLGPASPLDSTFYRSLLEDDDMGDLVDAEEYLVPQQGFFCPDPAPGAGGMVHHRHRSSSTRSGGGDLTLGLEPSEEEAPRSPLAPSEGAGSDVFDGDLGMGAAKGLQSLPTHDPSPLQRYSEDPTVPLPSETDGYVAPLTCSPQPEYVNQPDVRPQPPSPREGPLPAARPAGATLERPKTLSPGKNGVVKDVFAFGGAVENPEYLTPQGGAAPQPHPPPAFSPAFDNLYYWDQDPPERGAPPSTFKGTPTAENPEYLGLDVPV

Q: For `CN(C)C/C=C/C(=O)Nc1cc2c(Nc3ccc(F)c(Cl)c3)ncnc2cc1C#CC12COCC1C2` (stereo not shown) [Example 5, (E)-N-(4-(3-chloro-4-fluorophenylamino)-7-(2-(3-oxa-bicyclo[3.1.0]hexan-1-yl)ethynyl)quinazolin-6-yl)-4-(dimethylamino)but-2-enamide], which IC50 [1] is on record?
A: < 100 nM

Q: What about the IC50 [2] of the same compound?
A: < 100 nM

Q: And the IC50 [3]?
A: < 100 nM

Q: With `CN(C)C/C=C/C(=O)Nc1cc2c(Nc3ccc(F)c(Cl)c3)ncnc2cc1C#C[C@H]1CCCO1` [Example 3, (E)-N-(4-(3-chloro-4-fluorophenylamino)-7-(2-((R)-tetrahydrofuran-2-yl)ethynyl)quinazolin-6-yl)-4-(dimethylamino)but-2-enamide] as the compound, how does the IC50 [1] read?
A: < 100 nM

Q: What about the IC50 [2] of the same compound?
A: < 100 nM

Q: And the IC50 [3]?
A: < 100 nM

Q: For `CN(C)C/C=C/C(=O)Nc1cc2c(Nc3ccc(F)c(Cl)c3)ncnc2cc1C#C[C@@]12COC[C@@H]1C2` [Example 7, (E)-N-(4-(3-chloro-4-fluorophenylamino)-7-(2-((1S,5R)-3-oxa-bicyclo[3.1.0]hexan-1-yl)ethynyl)quinazolin-6-yl)-4-(dimethylamino)but-2-enamide], which IC50 [1] is on record?
A: < 100 nM

Q: What about the IC50 [2] of the same compound?
A: < 100 nM

Q: And the IC50 [3]?
A: < 100 nM

Q: For `CN(C)C/C=C/C(=O)Nc1cc2c(Nc3ccc(F)c(Cl)c3)ncnc2cc1C#C[C@@H]1CCCO1` [Example 2, (E)-N-(4-(3-chloro-4-fluorophenylamino)-7-(2-((S)-tetrahydrofuran-2-yl)ethynyl)quinazolin-6-yl)-4-(dimethylamino)but-2-enamide], which IC50 [1] is on record?
A: < 100 nM

Q: What about the IC50 [2] of the same compound?
A: < 100 nM

Q: And the IC50 [3]?
A: < 100 nM

Q: For `CN(C)C/C=C/C(=O)Nc1cc2c(Nc3ccc(F)c(Cl)c3)ncnc2cc1C#CC1CCOC1` (stereo not shown) [Example 1, (E)-N-(4-(3-chloro-4-fluorophenylamino)-7-(2-(tetrahydrofuran-3-yl)ethynyl)quinazolin-6-yl)-4-(dimethylamino)but-2-enamide], which IC50 [1] is on record?
A: < 100 nM

Q: And the IC50 [2]?
A: < 100 nM

Q: What about the IC50 [3] of the same compound?
A: < 100 nM

Q: Which IC50 [1] does the source give for `CN(C)C/C=C/C(=O)Nc1cc2c(Nc3ccc(F)c(Cl)c3)ncnc2cc1C#C[C@]12COC[C@H]1C2` [Example 6, (E)-N-(4-(3-chloro-4-fluorophenylamino)-7-(2-((1R,5S)-3-oxa-bicyclo[3.1.0]hexan-1-yl)ethynyl)quinazolin-6-yl)-4-(dimethylamino)but-2-enamide] here?
A: < 100 nM

Q: What about the IC50 [2] of the same compound?
A: < 100 nM

Q: And the IC50 [3]?
A: < 100 nM

Q: With `CS(=O)(=O)CCNCc1ccc(-c2ccc3ncnc(Nc4ccc(OCc5cccc(F)c5)c(Cl)c4)c3c2)o1` [Lapatinib, reference compound] as the compound, how does the tumor inhibition rate ([4]; day 28 (last day of the study)) read?
A: 92.9%

Q: And the “RTV T/C” value ([4]; day-7 after treatment)?
A: 31%

Q: And the “tumor growth inhibition rate” value ([4]; day-7 after treatment)?
A: 69%

Q: Which “rat PK (qualitative)” value [5] does the source give for `CN(C)C/C=C/C(=O)Nc1cc2c(Nc3ccc(F)c(Cl)c3)ncnc2cc1O[C@H]1CCOC1` [afatinib, reference compound] here?
A: poor PK

Q: And the Kp ([6]; Sprague Dawley, brain/plasma, read-out: Brain/plasma concentration ratio)?
A: < 0.05

Q: What about the brain concentration [6] of the same compound?
A: < 1 ng/g

Q: What about the “brain concentration (detectability)” value [6] of the same compound?
A: no detectable brain concentration; also recorded: below detection limit
